Test results reported in PMC9143228, “Evaluation of 3-Borono-L-Phenylalanine as a Water-Soluble Boron Neutron Capture Therapy Agent” (Pharmaceutics, 2022).
≈ marks a conversion by molar mass, not a printed value.

Columns and labels:
[1] = Water solubility (boron in supernatant by ICP-MS); format: physicochemical; conditions: for solubility at 24 h: 25 °C, 24 h stirring, n = 6
Procedure: 3-BPA or 4-BPA (40 mg) were suspended in 200 μL water and stirred at 25 °C for 24 h. After stirring, the solution was centrifuged at 5000 rpm for 10 min, and the amount of boron in the supernatant solution was measured by 8800 triple quadrupole ICP-MS (Agilent, Santa Clara, CA, USA). The experiment was repeated twice with n = 3.

[2] = cited from earlier work
[3] = system: T3M-4 human pancreatic adenocarcinoma cells; experiment: Cellular uptake study, T3M-4; format: cell-based; conditions: for Boron uptake, specific (LAT1-specific): difference non-inhibitor minus inhibitor; for Boron uptake, non-inhibitor: no inhibitor, mixed with fructose; for Boron uptake, inhibitor: with 10 µM LAT1 inhibitor JPH203
Procedure: (§1) B16F10 mouse melanoma cells (RCB2630) and T3M-4 human pancreatic adenocarcinoma cells (RCB1021) were provided by the RIKEN BRC (Ibaraki, Japan). U-87MG human glioblastoma cells were provided by Prof. Magata (Hamamatsu University School of Medicine, Hamamatsu, Japan), and A549 human lung carcinoma cells (CCL-185) were obtained from ATCC (Manassas, VA, USA). Cells were cultured in growth medium RPMI 1640 for B16F10 and T3M-4 and DMEM for A549 and U-87MG, containing 10% fetal bovine serum at 37 °C in a humidified atmosphere of 5% CO2.
(§2) Cells were cultured in six-well plates 2 days before the experiment. After medium removal, cells were washed twice with choline buffer (140 mM choline chloride, 2 mM potassium chloride, 1 mM magnesium chloride, 1 mM calcium chloride, 1 M Tris) and preincubated with 900 µL of choline buffer containing/not containing 10 µM of the LAT1-specific inhibitor JPH203 [32, 33] (Selleck Biotech, Tokyo, Japan) at 37 °C for 5 min. After incubation, 100 µL of 3-BPA or 4-BPA mixed with fructose (0.5 mg/mL, 0.11 w/v% Fru, pH 7.4) was added and incubated at 37 °C for 1, 5, and 30 min. After washing three times with choline buffer, 400 µL of 0.2 M NaOH was added to lyse the cells. After the amount of cell protein was measured using the BCA method (Thermo Fisher Scientific, Tokyo, Japan) and the mixture was ashed with nitric acid, the amount of boron was measured using ICP-MS. The accumulation rate was calculated as % dose/mg protein from the quantified dose of boron in added 3-BPA and 4-BPA, respectively (n = 3).

[4] = system: U-87MG human glioblastoma cells; experiment: Cellular uptake study, U-87MG; format: cell-based; conditions: for Boron uptake, specific (LAT1-specific): difference non-inhibitor minus inhibitor; for Boron uptake, non-inhibitor: no inhibitor, mixed with fructose; for Boron uptake, inhibitor: with 10 µM LAT1 inhibitor JPH203
Procedure: as §1, §2

[5] = system: A549 human lung carcinoma cells; experiment: Cellular uptake study, A549; format: cell-based; conditions: for Boron uptake, specific (LAT1-specific): difference non-inhibitor minus inhibitor; for Boron uptake, non-inhibitor: no inhibitor, mixed with fructose; for Boron uptake, inhibitor: with 10 µM LAT1 inhibitor JPH203
Procedure: as §1, §2

[6] = set-up: method as in doi:10.1007/978-1-4757-9567-7_10; conditions: cited from earlier work
[7] = system: B16F10 mouse melanoma cells; experiment: Cellular uptake study, B16F10; format: cell-based; conditions: for Boron uptake, specific (LAT1-specific): difference non-inhibitor minus inhibitor; for Boron uptake, non-inhibitor: no inhibitor, mixed with fructose; for Boron uptake, inhibitor: with 10 µM LAT1 inhibitor JPH203
Procedure: as §1, §2

[8] = Log p measurement (water/1-octanol, ICP-MS); format: physicochemical; conditions: v/v); water:1-octanol 1:1, n = 12
Procedure: After dissolving 3-BPA or 4-BPA in water (0.2 mg/mL), 1-octanol was added to compose a water:1-octanol (1:1, v/v) mixture. The mixture was shaken for 5 min and then centrifuged at 5000 rpm for 10 min. The amount of boron was measured for each liquid phase using ICP-MS, and log p was calculated from the concentration ratio of each liquid phase. The experiment was repeated twice with n = 6.

N[C@@H](Cc1ccccc1)C(=O)O [phenylalanine]
solubility ([1]; in water, 25°C, n = 3, Table S8, read-out: Solubility (g/L) (in water, 25°C, n = 3)): 15.3 ± 0.1 g/L (≈ 92.6 mM)
water solubility [2]: 12.0 mg/mL (≈ 72.6 mM)

NC(Cc1cccc(O)c1)C(=O)O (racemic) [meta-Tyrosine, DL-meta-tyrosine]
Solubility (g/L) (in water, 25°C, n = 3) ([1]; in water, 25°C, n = 3, Table S8): 9.8 ± 0.1 g/L (≈ 54.1 mM)
Water solubility of DL-meta-tyrosine relative to DL-tyrosine ([1]; times higher than DL-tyrosine): more than 25 times

N[C@@H](Cc1ccc(B(O)O)cc1)C(=O)O [4-BPA, 4-borono-L-phenylalanine]
Boron uptake, specific (LAT1-specific) ([3]; T3M-4, 1 min): 0.56 ± 0.11 % dose/mg protein
Boron uptake, non-inhibitor ([3]; T3M-4, 1 min): 0.82 ± 0.11 % dose/mg protein
Boron uptake, inhibitor ([3]; T3M-4, 1 min): 0.26 ± 0.16 % dose/mg protein
Boron uptake, specific (LAT1-specific) ([3]; T3M-4, 5 min): 3.10 ± 0.39 % dose/mg protein
Boron uptake, non-inhibitor ([3]; T3M-4, 5 min): 3.28 ± 0.39 % dose/mg protein
Boron uptake, inhibitor ([3]; T3M-4, 5 min): 0.18 ± 0.02 % dose/mg protein
Boron uptake, specific (LAT1-specific) ([3]; T3M-4, 30 min): 5.19 ± 0.45 % dose/mg protein
Boron uptake, non-inhibitor ([3]; T3M-4, 30 min): 5.40 ± 0.45 % dose/mg protein
Boron uptake, inhibitor ([3]; T3M-4, 30 min): 0.20 ± 0.01 % dose/mg protein
Boron uptake, specific (LAT1-specific) ([4]; 1 min): 0.05 ± 0.02 % dose/mg protein
Boron uptake, non-inhibitor ([4]; 1 min): 0.13 ± 0.02 % dose/mg protein
Boron uptake, inhibitor ([4]; 1 min): 0.08 ± 0.01 % dose/mg protein
Boron uptake, specific (LAT1-specific) ([4]; 5 min): 0.06 ± 0.02 % dose/mg protein
Boron uptake, non-inhibitor ([4]; 5 min): 0.20 ± 0.02 % dose/mg protein
Boron uptake, inhibitor ([4]; 5 min): 0.14 ± 0.02 % dose/mg protein
Boron uptake, specific (LAT1-specific) ([4]; 30 min): 0.31 ± 0.03 % dose/mg protein
Boron uptake, non-inhibitor ([4]; 30 min): 0.48 ± 0.03 % dose/mg protein
Boron uptake, inhibitor ([4]; 30 min): 0.17 ± 0.01 % dose/mg protein
Boron uptake, specific (LAT1-specific) ([5]; A549, 1 min): 0.13 ± 0.04 % dose/mg protein
Boron uptake, non-inhibitor ([5]; A549, 1 min): 0.14 ± 0.04 % dose/mg protein
Boron uptake, inhibitor ([5]; A549, 1 min): 0.01 ± 0.01 % dose/mg protein
Boron uptake, specific (LAT1-specific) ([5]; A549, 5 min): 0.66 ± 0.08 % dose/mg protein
Boron uptake, non-inhibitor ([5]; A549, 5 min): 0.66 ± 0.08 % dose/mg protein
Boron uptake, inhibitor ([5]; A549, 5 min): 0.00 ± 0.01 % dose/mg protein
Boron uptake, specific (LAT1-specific) ([5]; A549, 30 min): 3.75 ± 0.20 % dose/mg protein
Boron uptake, non-inhibitor ([5]; A549, 30 min): 3.92 ± 0.20 % dose/mg protein
Boron uptake, inhibitor ([5]; A549, 30 min): 0.17 ± 0.09 % dose/mg protein
pKa1 [6]: 2.35
pKa2 [6]: 8.45
pKa3 [6]: 9.67
solubility at 24 h ([1]; in water): 0.72 ± 0.13 mg/mL (≈ 3.44 mM)
Boron uptake, specific (LAT1-specific) ([7]; B16F10, 1 min): 0.03 ± 0.01 % dose/mg protein
Boron uptake, non-inhibitor ([7]; B16F10, 1 min): 0.03 ± 0.01 % dose/mg protein
Boron uptake, inhibitor ([7]; B16F10, 1 min): 0.00 ± 0.01 % dose/mg protein
Boron uptake, specific (LAT1-specific) ([7]; B16F10, 5 min): 0.48 ± 0.01 % dose/mg protein
Boron uptake, non-inhibitor ([7]; B16F10, 5 min): 0.62 ± 0.01 % dose/mg protein
Boron uptake, inhibitor ([7]; B16F10, 5 min): 0.14 ± 0.03 % dose/mg protein
Boron uptake, specific (LAT1-specific) ([7]; B16F10, 30 min): 0.56 ± 0.06 % dose/mg protein
Boron uptake, non-inhibitor ([7]; B16F10, 30 min): 0.57 ± 0.06 % dose/mg protein
Boron uptake, inhibitor ([7]; B16F10, 30 min): 0.01 ± 0.01 % dose/mg protein
Water solubility under neutral conditions ([2]; neutral conditions, ref Borofalan interview form): 0.6 to 0.7 mg/mL
logP [8]: -1.8 ± 0.04

N[C@@H](Cc1cccc(B(O)O)c1)C(=O)O [3-BPA, 3-borono-L-phenylalanine]
Boron uptake, specific (LAT1-specific) ([3]; T3M-4, 1 min): 0.69 ± 0.09 % dose/mg protein
Boron uptake, non-inhibitor ([3]; T3M-4, 1 min): 0.78 ± 0.09 % dose/mg protein
Boron uptake, inhibitor ([3]; T3M-4, 1 min): 0.09 ± 0.08 % dose/mg protein
Boron uptake, specific (LAT1-specific) ([3]; T3M-4, 5 min): 3.55 ± 0.40 % dose/mg protein
Boron uptake, non-inhibitor ([3]; T3M-4, 5 min): 3.55 ± 0.40 % dose/mg protein
Boron uptake, inhibitor ([3]; T3M-4, 5 min): 0.09 ± 0.07 % dose/mg protein
Boron uptake, specific (LAT1-specific) ([3]; T3M-4, 30 min): 5.41 ± 0.63 % dose/mg protein
Boron uptake, non-inhibitor ([3]; T3M-4, 30 min): 5.62 ± 0.63 % dose/mg protein
Boron uptake, inhibitor ([3]; T3M-4, 30 min): 0.21 ± 0.06 % dose/mg protein
Boron uptake, specific (LAT1-specific) ([4]; 1 min): 0.02 ± 0.04 % dose/mg protein
Boron uptake, non-inhibitor ([4]; 1 min): 0.33 ± 0.04 % dose/mg protein
Boron uptake, inhibitor ([4]; 1 min): 0.31 ± 0.05 % dose/mg protein
Boron uptake, specific (LAT1-specific) ([4]; 5 min): 0.15 ± 0.04 % dose/mg protein
Boron uptake, non-inhibitor ([4]; 5 min): 0.28 ± 0.04 % dose/mg protein
Boron uptake, inhibitor ([4]; 5 min): 0.14 ± 0.05 % dose/mg protein
Boron uptake, specific (LAT1-specific) ([4]; 30 min): 0.21 ± 0.05 % dose/mg protein
Boron uptake, non-inhibitor ([4]; 30 min): 0.45 ± 0.05 % dose/mg protein
Boron uptake, inhibitor ([4]; 30 min): 0.24 ± 0.04 % dose/mg protein
Boron uptake, specific (LAT1-specific) ([5]; A549, 1 min): 0.30 ± 0.12 % dose/mg protein
Boron uptake, non-inhibitor ([5]; A549, 1 min): 0.48 ± 0.12 % dose/mg protein
Boron uptake, inhibitor ([5]; A549, 1 min): 0.18 ± 0.03 % dose/mg protein
Boron uptake, specific (LAT1-specific) ([5]; A549, 5 min): 0.94 ± 0.40 % dose/mg protein
Boron uptake, non-inhibitor ([5]; A549, 5 min): 1.22 ± 0.13 % dose/mg protein
Boron uptake, inhibitor ([5]; A549, 5 min): 0.29 ± 0.02 % dose/mg protein
Boron uptake, specific (LAT1-specific) ([5]; A549, 30 min): 3.60 ± 0.24 % dose/mg protein
Boron uptake, non-inhibitor ([5]; A549, 30 min): 4.02 ± 0.24 % dose/mg protein
Boron uptake, inhibitor ([5]; A549, 30 min): 0.42 ± 0.01 % dose/mg protein
pKa1 [6]: 2.26
pKa2 [6]: 8.46
pKa3 [6]: 9.95
solubility at 24 h ([1]; in water): 125 mg/mL (≈ 598 mM)
Water solubility of 3-BPA relative to 4-BPA ([1]; times higher than 4-BPA): more than 100 times
Boron uptake, specific (LAT1-specific) ([7]; B16F10, 1 min): 0.03 ± 0.03 % dose/mg protein
Boron uptake, non-inhibitor ([7]; B16F10, 1 min): 0.23 ± 0.03 % dose/mg protein
Boron uptake, inhibitor ([7]; B16F10, 1 min): 0.21 ± 0.06 % dose/mg protein
Boron uptake, specific (LAT1-specific) ([7]; B16F10, 5 min): 0.42 ± 0.11 % dose/mg protein
Boron uptake, non-inhibitor ([7]; B16F10, 5 min): 0.59 ± 0.11 % dose/mg protein
Boron uptake, inhibitor ([7]; B16F10, 5 min): 0.17 ± 0.11 % dose/mg protein
Boron uptake, specific (LAT1-specific) ([7]; B16F10, 30 min): 0.56 ± 0.07 % dose/mg protein
Boron uptake, non-inhibitor ([7]; B16F10, 30 min): 0.80 ± 0.07 % dose/mg protein
Boron uptake, inhibitor ([7]; B16F10, 30 min): 0.24 ± 0.01 % dose/mg protein
logP [8]: -1.59
